Our source for the EC50 values is patent US8822503B2, “2-pyridone compounds” (Taisho Pharmaceutical Co., Ltd, priority 2009, dated 2014).

For this experiment, the target named is T1, human liver GK (Homo sapiens, UniProt P35557).
T1 construct: GST (glutathione S-transferase) (N); made in house; host or cells: E. coli
T1 sequence (P35557 1-466 isoform P35557-2): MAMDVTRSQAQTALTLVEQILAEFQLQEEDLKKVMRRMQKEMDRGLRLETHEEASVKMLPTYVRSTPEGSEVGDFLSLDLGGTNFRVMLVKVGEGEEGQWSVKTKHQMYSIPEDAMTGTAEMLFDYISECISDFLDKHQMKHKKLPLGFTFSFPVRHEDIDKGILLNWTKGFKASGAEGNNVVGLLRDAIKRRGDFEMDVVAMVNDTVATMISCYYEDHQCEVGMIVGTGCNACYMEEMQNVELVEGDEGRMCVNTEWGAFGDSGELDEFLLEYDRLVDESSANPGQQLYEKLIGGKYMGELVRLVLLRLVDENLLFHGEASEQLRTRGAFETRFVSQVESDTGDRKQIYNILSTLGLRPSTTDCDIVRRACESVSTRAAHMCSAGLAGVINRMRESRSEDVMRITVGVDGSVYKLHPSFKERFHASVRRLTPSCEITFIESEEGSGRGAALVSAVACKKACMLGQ
Briefly: GK activation test. Conditions: test compound concentration needed to activate 50% of maximum activation ability; 4 mM 14C-labeled glucose, 2 mM ATP, room temperature, 20 minutes. In kind it is biochemical. The method, boiled down:
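GST-tagged human liver GK from E. coli (0.24 μg/well) with 4 mM 14C-glucose, 2 mM ATP in Hepes-KOH pH 7.1, KCl, MgCl2, DTT, 1% DMSO, 20 min room temperature. Labeled glucose 6-phosphate captured on anion resin, eluted and counted. EC50 = concentration giving half of maximal activation.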

By EC50 is commonly meant the concentration at which the effect is half-maximal. On to `O=C1CC[C@H](/C=C(\c2ccc(S(=O)(=O)C3CC3)cc2)c2ccc(Cl)c(=O)[nH]2)N1` [Example 4-57, 3-Chloro-6-{(E)-1-[4-(cyclopropylsulfonyl)phenyl]-2-[(2R)-5-oxopyrrolidin-2-yl]ethenyl}pyridin-2(1H)-one], for which the EC50 lay within 0.01 to 0.5 µM.
With `CCS(=O)(=O)c1ccc(/C(=C\[C@H]2CCC(=O)N2)c2ccc(Cl)c(=O)[nH]2)cc1Cl` [Example 4-58, 3-Chloro-6-{(E)-1-[3-chloro-4-(ethylsulfonyl)phenyl]-2-[(2R)-5-oxopyrrolidin-2-yl]ethenyl}pyridin-2(1H)-one] the figure was 0.5 to 3 µM.
The molecule `O=C1CC[C@H](/C=C(\c2ccc(S(=O)(=O)C3CC3)c(Cl)c2)c2ccc(Cl)c(=O)[nH]2)N1` [Example 4-59, 3-Chloro-6-{(E)-1-[3-chloro-4-(cyclopropylsulfonyl)phenyl]-2-[(2R)-5-oxopyrrolidin-2-yl]ethenyl}pyridin-2(1H)-one] came in with an EC50 of 0.01 to 0.5 µM.
Take `O=C1CC[C@H](/C=C(\c2ccc(S(=O)(=O)C3CCCC3)cc2)c2ccc(Cl)c(=O)[nH]2)N1` [Example 4-60, 3-Chloro-6-{(E)-1-[4-(cyclopentylsulfonyl)phenyl]-2-[(2R)-5-oxopyrrolidin-2-yl]ethenyl}pyridin-2(1H)-one]: the EC50 was in the range of 0.01 to 0.5 µM.
`CN1CCN(S(=O)(=O)c2ccc(/C(=C\[C@H]3CCC(=O)N3)c3ccc(Cl)c(=O)[nH]3)cc2)CC1` [Example 4-61, 3-Chloro-6-{(E)-1-{4-[(4-methylpiperazin-1-yl)sulfonyl]phenyl}-2-[(2R)-5-oxopyrrolidin-2-yl]ethenyl}pyridin-2(1H)-one] gave an EC50 of 0.5 to 3 µM.
As to `CCN(CC)CCCCOc1ccc(/C(=C\[C@H]2CCC(=O)N2)c2ccc(C3CC3)c(=O)[nH]2)cc1Cl` [Example 4-62, 6-{(E)-1-{3-Chloro-4-[4-(diethylamino)butoxy]phenyl}-2-[(2R)-5-oxopyrrolidin-2-yl]ethenyl}-3-cyclopropylpyridin-2(1H)-one], the EC50 was in the range of 0.01 to 0.5 µM.
`CCN(CC)CCCCOc1ccc(/C(=C\[C@H]2CCC(=O)N2)c2ccc(Cl)c(=O)[nH]2)cc1Cl` [Example 4-63, 3-Chloro-6-{(E)-1-{3-chloro-4-[4-(diethylamino)butoxy]phenyl}-2-[(2R)-5-oxopyrrolidin-2-yl]ethenyl}pyridin-2(1H)-one]: the EC50 lay within 0.5 to 3 µM.
As for `O=C1CC[C@H](/C=C(\c2ccc(OCCCCN3CCCC3)c(Cl)c2)c2ccc(Cl)c(=O)[nH]2)N1` [Example 4-64, 3-Chloro-6-{(E)-1-{3-chloro-4-[4-(pyrrolidin-1-yl)butoxy]phenyl}-2-[(2R)-5-oxopyrrolidin-2-yl]ethenyl}pyridin-2(1H)-one], the EC50 lay in the range of 0.01 to 0.5 µM.
The molecule `CCN(CC)CCCOc1ccc(/C(=C\[C@H]2CCC(=O)N2)c2ccc(C3CC3)c(=O)[nH]2)cc1` [Example 4-65, 3-Cyclopropyl-6-{(E)-1-{4-[3-(diethylamino)propoxy]phenyl}-2-[(2R)-5-oxopyrrolidin-2-yl]ethenyl}pyridin-2(1H)-one] displayed an EC50 of 0.5 to 3 µM.
In the case of `CC(C)c1ccc(/C(=C\[C@H]2CCC(=O)N2)c2ccc(C3CC3)c(=O)[nH]2)cc1` [Example 4-67, 3-Cyclopropyl-6-{(E)-2-[(2R)-5-oxopyrrolidin-2-yl]-1-[4-(propan-2-yl)phenyl]ethenyl}pyridin-2(1H)-one], the EC50 lay in the range of 0.01 to 0.5 µM.
Molecule `CCC(=O)N1CC[C@H](/C=C(\c2ccc(C(C)(C)C)cc2)c2ccc(Cl)c(=O)[nH]2)C1` [Example 4-68, 6-{(E)-1-(4-tert-Butylphenyl)-2-[(3R)-1-propanoylpyrrolidin-3-yl]ethenyl}-3-chloropyridin-2(1H)-one] registered an EC50 of 0.01 to 0.5 µM.
With `CC(C)(C)c1ccc(/C(=C\[C@H]2CCC(=O)N2)c2ccc(Cl)c(=O)[nH]2)cc1Cl` [Example 4-71, 6-{(E)-1-(4-tert-Butyl-3-chlorophenyl)-2-[(2R)-5-oxopyrrolidin-2-yl]ethenyl}-3-chloropyridin-2(1H)-one] the figure was 0.01 to 0.5 µM; with `CCS(=O)(=O)N1CC[C@H](/C=C(\c2ccc(C(C)(C)C)cc2)c2ccc(Cl)c(=O)[nH]2)C1` [Example 4-72, 6-{(E)-1-(4-tert-Butylphenyl)-2-[(3R)-1-(ethylsulfonyl)pyrrolidin-3-yl]ethenyl}-3-chloropyridin-2(1H)-one], 0.01 to 0.5 µM; with `COCCCCc1ccc(/C(=C\[C@H]2CCC(=O)N2)c2ccc(Cl)c(=O)[nH]2)cc1` [Example 4-73, 3-Chloro-6-{(E)-1-[4-(4-methoxybutyl)phenyl]-2-[(2R)-5-oxopyrrolidin-2-yl]ethenyl}pyridin-2(1H)-one], 0.5 to 3 µM.
As for `CC(C)(C)c1ccc(/C(=C\[C@H]2CCC(=O)N2)c2ccc(C(F)(F)F)c(=O)[nH]2)cc1` [Example 4-74, 6-{(E)-1-(4-tert-Butylphenyl)-2-[(2R)-5-oxopyrrolidin-2-yl]ethenyl}-3-(trifluoromethyl)pyridin-2(1H)-one], the EC50 lay within 0.01 to 0.5 µM.
`CC(C)(C)c1ccc(/C(=C\[C@@H]2CCC(=O)N2)c2ccc(Cl)c(=O)[nH]2)cc1` [Example 4-75, 6-{(E)-1-(4-tert-Butylphenyl)-2-[(2S)-5-oxopyrrolidin-2-yl]ethenyl}-3-chloropyridin-2(1H)-one] gave an EC50 of 3 to 10 µM.
As to `O=C(C1CC1)N1CC[C@H](/C=C(\c2ccc(Cl)cc2)c2ccc(C3CC3)c(=O)[nH]2)C1` [Example 4-78, 6-{(E)-1-(4-Chlorophenyl)-2-[(3R)-1-(cyclopropylcarbonyl)pyrrolidin-3-yl]ethenyl}-3-cyclopropylpyridin-2(1H)-one], the EC50 lay in the range of 0.01 to 0.5 µM.
In the case of `CN1CCOc2cc(/C(=C\[C@H]3CCC(=O)N3)c3ccc(Cl)c(=O)[nH]3)ccc21` [Example 4-79, 3-Chloro-6-{(E)-1-(4-methyl-3,4-dihydro-2H-1,4-benzoxazin-7-yl)-2-[(2R)-5-oxopyrrolidin-2-yl]ethenyl}pyridin-2(1H)-one], the EC50 is 0.5 to 3 µM.
`CC(C)c1ccc([C@@H](C[C@H]2CCC(=O)N2)c2ccc(C3CC3)c(=O)[nH]2)cc1` [Example 4-80, 3-Cyclopropyl-6-{(1R)-2-[(2R)-5-oxopyrrolidin-2-yl]-1-[4-(propan-2-yl)phenyl]ethyl}pyridin-2(1H)-one]: the EC50 lay in the range of 0.01 to 0.5 µM.
Molecule `CC(C)c1ccc(/C(=C\[C@H]2CCC(=O)N2)c2ccc(C3CC3)c(=O)[nH]2)cc1Cl` [Example 4-81, 6-{(E)-1-[3-Chloro-4-(propan-2-yl)phenyl]-2-[(2R)-5-oxopyrrolidin-2-yl]ethenyl}-3-cyclopropylpyridin-2(1H)-one] gave an EC50 of 0.01 to 0.5 µM.
The molecule `CC(C)c1ccc(/C(=C/[C@H]2CCC(=O)N2)c2ccc(Cl)c(=O)[nH]2)cc1` [Example 4-82, 3-Chloro-6-{(Z)-2-[(2R)-5-oxopyrrolidin-2-yl]-1-[4-(propan-2-yl)phenyl]ethenyl}pyridin-2(1H)-one] came in with an EC50 of 3 to 10 µM.
Regarding `CC(C)(C)c1ccc(/C(=C\[C@H]2CCC(=O)N2)c2ccc(C3CC3)c(=O)[nH]2)cc1` [Example 4-83, 6-{(E)-1-(4-tert-Butylphenyl)-2-[(2R)-5-oxopyrrolidin-2-yl]ethenyl}-3-cyclopropylpyridin-2(1H)-one], the EC50 fell in the range of 0.01 to 0.5 µM.
In the case of `CC(C)c1ccc(/C(=C\[C@H]2CCC(=O)N2)c2ccc(Cl)c(=O)[nH]2)cc1Cl` [Example 4-84, 3-Chloro-6-{(E)-1-[3-chloro-4-(propan-2-yl)phenyl]-2-[(2R)-5-oxopyrrolidin-2-yl]ethenyl}pyridin-2(1H)-one], the EC50 fell in the range of 0.01 to 0.5 µM.
In the case of `O=C1CC[C@H](/C=C(\c2ccc(C3CC3)cc2)c2ccc(Cl)c(=O)[nH]2)N1` [Example 4-88, 3-Chloro-6-{(E)-1-(4-cyclopropylphenyl)-2-[(2R)-5-oxopyrrolidin-2-yl]ethenyl}pyridin-2(1H)-one], the EC50 lay within 0.5 to 3 µM.
Molecule `CN1CCN(S(=O)(=O)c2ccc(C(C[C@H]3CCC(=O)N3)c3ccc(Cl)c(=O)[nH]3)cc2)CC1` (stereo partly drawn) [Example 4-89, 3-Chloro-6-(1-{4-[(4-methylpiperazin-1-yl)sulfonyl]phenyl}-2-[(2R)-5-oxopyrrolidin-2-yl]ethyl)pyridin-2(1H)-one] gave an EC50 of 3 to 10 µM.
Turning to `O=C1CC[C@H](/C=C(\c2ccc(OC3CC3)cc2)c2ccc(Cl)c(=O)[nH]2)N1` [Example 4-90, 3-Chloro-6-{(E)-1-[4-(cyclopropyloxy)phenyl]-2-[(2R)-5-oxopyrrolidin-2-yl]ethenyl}pyridin-2(1H)-one], the EC50 was in the range of 0.5 to 3 µM.
`CC(C)(C)c1ccc(/C(=C\[C@H]2CCN(C(=O)C3CC3)C2)c2ccc(Cl)c(=O)[nH]2)cc1` [Example 4-92, 6-{(E)-1-(4-tert-Butylphenyl)-2-[(3R)-1-(cyclopropylcarbonyl)pyrrolidin-3-yl]ethenyl}-3-chloropyridin-2(1H)-one] gave an EC50 of 0.01 to 0.5 µM.
`CC(C)(C)c1ccc(/C(=C\[C@H]2CCN(C(=O)C3CCOCC3)C2)c2ccc(Cl)c(=O)[nH]2)cc1` [Example 4-93, 6-{(E)-1-(4-tert-Butylphenyl)-2-[(3R)-1-(tetrahydro-2H-pyran-4-ylcarbonyl)pyrrolidin-3-yl]ethenyl}-3-chloropyridin-2(1H)-one] gave an EC50 of 3 to 10 µM.
With `O=C1CC[C@H](/C=C(\c2ccc(Cl)cc2)c2ccc(C3CC3)c(=O)[nH]2)N1` [Example 4-98, 6-{(E)-1-(4-Chlorophenyl)-2-[(2R)-5-oxopyrrolidin-2-yl]ethenyl}-3-cyclopropylpyridin-2(1H)-one] the figure was 0.01 to 0.5 µM.
